Data: patent US20140296281A1, “METHODS FOR SCREENING A BRCA1 LOSS-OF-FUNCTION IN A SUBJECT SUFFERING FROM A CANCER” (INSERM (INSTITUT NATIONAL DE LA SANTE ET DE LA RECHERCHE …, priority 2011, published 2014)
“Also recorded” adds a separate entry of the source.

Key:
[1] = molecular target: MAPK phosphorylated p38 (P-p38) (Homo sapiens, UniProt Q16539); experiment: Western blot of phosphorylated MAPK p38; type: cell-based; details: MCF-7, in presence of SB
Method: (§1) These five antibodies were then detected with an anti-rabbit HRP-conjugated secondary antibody (1:5000) (Santa Cruz, Heidelberg, Germany). Actin expression was analyzed with the human anti-β-actin mouse monoclonal primary antibody (1:20 000) (β-actin (AC-15); A5441, Sigma-Aldrich, St Quentin Fallavier, France), and then detected with an anti-mouse HRP-conjugated secondary antibody (1:2000) (Sigma-Aldrich, St Quentin Fallavier, France).

GR P-Ser211 = experiment: Western blot of GR P-Ser211; type: cell-based, human
Method: […] Control cells were treated with ethanol as vehicle (1:1000). Treatments were carried out in a phenol red free medium containing 5% dextran-charcoal-stripped serum for a period of 24 h in MCF-7 and MDA-MB231 and 48 h in HBE cells.
as §1

BRCA1 = details: mouse mammary cells (Antonova and Mueller 2008); cited from earlier work

Chain of MAPK phosphorylated p38 (P-p38) (Q16539 whole entry): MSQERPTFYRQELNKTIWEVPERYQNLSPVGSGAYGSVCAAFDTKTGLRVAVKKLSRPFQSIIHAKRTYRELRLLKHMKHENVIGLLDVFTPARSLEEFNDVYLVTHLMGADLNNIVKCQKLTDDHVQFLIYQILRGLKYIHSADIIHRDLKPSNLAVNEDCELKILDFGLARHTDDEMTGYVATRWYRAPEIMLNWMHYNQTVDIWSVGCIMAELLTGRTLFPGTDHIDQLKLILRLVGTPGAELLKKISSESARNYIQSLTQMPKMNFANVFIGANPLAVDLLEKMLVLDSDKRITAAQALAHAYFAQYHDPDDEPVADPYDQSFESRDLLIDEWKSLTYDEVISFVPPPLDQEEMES

Row | Structure (SMILES) | levels of P-p38 [1] | decrease of GR P-Ser211 level (GR P-Ser211; MCF-7, DEX+SB compared to DEX treatment alone) | GR P-Ser211 level (GR P-Ser211; MCF-7, cells exposed to SB compared to basal conditions, even with BRCA1 overexpression) | BRCA1 expression (BRCA1)
1 | Oc1ccc(-c2nc(-c3ccncc3)c(-c3ccc(F)cc3)[nH]2)cc1 [SB] | increased | also observed | constant decrease | –
2 | C[C@]12CCC(=O)C=C1CC[C@@H]1[C@@H]2[C@@H](O)C[C@@]2(C)[C@H]1CC[C@]2(O)C(=O)CO [hydrocortisone] | – | – | – | repress; also recorded: decrease
